These results are taken from US4933336A, “Thiadiazinone, oxadiazinone and triazinone derivatives, and their use for treating acute or chronic heart disease” (Laboratoires Sobio S.A., priority 1987, dated 1990).

In experiment [1] the test system is conscious instrumented Dog. The experiment is described as follows: Cardiotonic activity in the conscious instrumented Dog. It is filed as in vivo, dog (male Beagle). The settings on record: Canis lupus familiaris, po; for change in vivo at 3 mg/kg: 3.00 mg/kg p.o.; for change in vivo at 0.3 mg/kg: 0.30 mg/kg p.o.; for change in vivo at 1 mg/kg: 1.00 mg/kg p.o.; for change in vivo at 0.1 mg/kg: 0.10 mg/kg p.o. As for the experimental part: Cardiotonic activity in the conscious instrumented Dog
Male Beagle dogs, at least 2 years old, weighing 12 to 18 kg were anaesthetised with pentobarbital sodium (30 mg/kg i.v.). Respiration was maintained by a Harward pump, model 613a. The heart was exposed through a left thoracotomy and a pericardial cardle was formed. A high fidelity micromanometer (Koenigsberg P5 -P7) was inserted into left venitricular lumen through a stab incision at the apex. Wires were exteriorised to the back of the animals, placed into a size adapted jacket, and the chest closed. The experiments were conducted on the conscious dogs, 1 or 2 weeks after the surgery, when the animals had completely recovered.
Measured parameters were : first derivative of left ventricular pressure, (dP/dt, mmHg/sec); heart rate (HR, beats/min.). A control period recording of 90 min. was made with the dogs placed in a quiet room, the recordings being made outside. Compounds to be tested were administered orally in gelatin capsules and the parameters measured for 5 hrs. at least.
Results were expressed as the percentage of the maximum±SEM.

Experiment [2] relates to Canine cardiac myofibrillar Ca++-dependent Mg++ ATPase. The experiment can be described thus: Measurement of myofibrillar Ca++-dependent Mg++ATPase activity (Ca++ sensitivity and maximal activity). It is filed as biochemical, canine (dog). The conditions noted are these: pH 7.0, 21° C. As for the experimental part:
1. Measurement of myofibrillar Ca++-dependent Mg++ATPase activity
the effect on myofibrillar Ca++sensitivity and on maximal activity of myofibrillar Ca++-dependent Mg++-ATPase was determined on canine cardiac myofibrils.
(a) Contractile protein preparation
Cardiac myofibrils free of membrane contaminants were prepared from left ventricular tissue of dog hearts using a modification of the method described by SOLARO et al, Biochem. Biophys. Acta, 245, 259-262, (1971). Before centrifugration, the heart homogenate was filtered through gauze.
After Triton X-100 treatments, the myofibrillar fraction was washed once by resuspension and centrifugation in 10 volumes of 1 mM EGTA, […], 30 mM imidazole, 2 mM MgCl2, pH 7.0. The pellet was then washed three times in 10 volumes of the same buffer without EGTA. Before the last centrifugation, the suspension of myofibrils was filtered through a stainless steel sieve with 0.25 mm meshes.
Myofibrils were kept in pellet overnight. Before use, the pellet was suspended in a small amount of buffer, the protein concentration was determined by the method of BRADFORD M., Anal. Biochem., 1976, 72, 248 and adjusted in order to have a concentration between 6 and 7 mg/ml.
(b) Myofibrillar ATPase activity
Ca++-dependent myfibrillar ATPase activity was determined at 21° C., pH 7.0, by measuring the rate of release of inorganic phosphate. All assays were performed within 24 hrs. of final purification, using the method described by SOLARO and RUEGG, CIRC. RES., 51, 290-4, (1982). Reaction mixtures (4 ml) containing 0.6-0.7 mg/ml myofibrillar protein, 80 mM KCl, 20 mM imidazole, 3 mM […], 1 mM EGTA, the desired amount of CaCl2, and the indicated concentration of drug or appropriate vehicle were preincubated for 6 min. prior to assay. The amount of CaCl2 was varied between 0 and 0.9 mM and the pCA (-log free Ca++) computed using 2.514×10^6 M^-1 as the apparent affinity of Ca++for EGTA at pH 7.0.
Reactions were initiated by the addition of Na2 ATP to final concentration of 2 mM. After an incubation period of 12 min., reactions were quenched by the addition of an equal volume of ice-cold 10% trichloroacetic acid. The protein was pelleted by centrifugation (2000 g, 15 min.) and Pi was assayed in the supernatant fraction using a modification of the method described by LANZETTA et al, Anal. Biochem., 100, 95-97, (1979).
The following solutions were prepared:
(1) 3.7% ammonium heptamolybdate in 0.12N H2 SO4
(2) 0.074% malachite green oxalate in 1% polyvinylic alcohol.
the colour reagent was prepared by mixing an equal volume of solution (1) and (2) 15 min. before the assay. For the assay, 1700 μl of 1% H2 SO4 and 1 ml of colour reagent were added to 100 μl of sample. Colour development occurred at room temperature for 30 min. and was quenched by the addition of 200 μl of 1M tri-potassium citrate. The absorbance was measured at 620 millimicrons.
The effect of each compound, tested at the indicated concentration, on the relation between pCa and percent activation was determined taking 100% for the maximum ATPase activity obtained with vehicle alone. The effect on Ca++ sensitivity was quantified by measuring the shift of the pCa giving 50% of the maximal control ATPase activity.
The effect on maximal ATPase activity was expressed as the percent change of ATPase activity for pCa=5.47.

Setting [3] is: read-out: H.R. (heart rate), percentage of the maximum ± SEM.
[4] abbreviates: read-out: dP/dt Max (first derivative of left ventricular pressure), percentage of the maximum ± SEM.

Where two headings read alike, the source gives them in different places.

For the compound `CSC1C(=O)Nc2ccc(C3=NNC(=O)SC3)cc21` (stereo not shown) [Example 11, 1,3-Dihydro-5-(3,6-dihydro-2-oxo-2H-1,3,4-thiadiazin-5-yl) -3-methylthio-2H-indol-2-one], in experiment [1] (setting [3]), the change in vivo at 3 mg/kg is 7%. Also, in experiment [1] (setting [4]), the change in vivo at 3 mg/kg amounted to 51%. Further, in experiment [2] (20 × 10^-5 molar), the “Max ATPase activity (%) (percent change of ATPase activity for pCa=5.47)” value is reported as “+1 ± 0%” and the “Ca2+ sensitivity p CA50 (shift of the pCa giving 50% of the maximal control ATPase activity)” value turned out to be 0.36 ± 0.05.
Consider `CC1SC(=O)NN=C1c1ccc2c(c1)C1(SCCS1)C(=O)N2` (stereo not shown) [Example 13, 5'-(3,6-Dihydro-6-methyl-2-oxo-2H-1,3,4 thiadiazin-5-yl) -spiro 1,3-dithiolane-2,3'-3H indol-2(1'H)-one], for which the change in vivo at 0.3 mg/kg in experiment [1] (setting [3]) amounted to 15%. For the same compound, the change in vivo at 0.3 mg/kg in experiment [1] (setting [4]) was 43%. Moreover, in experiment [2] (3 × 10^-5 molar), the “Max ATPase activity (%) (percent change of ATPase activity for pCa=5.47)” value is on record as -11 ± 5% and the “Ca2+ sensitivity p CA50 (shift of the pCa giving 50% of the maximal control ATPase activity)” value is recorded as 0.58 ± 0.04.
For `CC1SC(=O)NN=C1c1ccc2c(c1)C1(SCCCS1)C(=O)N2` (stereo not shown) [Example 14, 5'-(3,6-Dihydro-6-methyl-2-oxo-2H-1,3,4-thiadiazin-5-yl) -spiro[1,3-dithiane-2,3'-[3H]indol]-2(1'H)-one] the same measures were 22%, 30%, “+4 ± 1%” and 0.71 ± 0.09.
Regarding `CC1SC(=O)NN=C1c1ccc2c(c1)C1(CCCCC1)C(=O)N2` (stereo not shown) [Example 17], the results for the change in vivo at 3 mg/kg in experiment [1] (setting [3]) and in experiment [1] (setting [4]) were 9% and 40%, respectively. Also, the “Max ATPase activity (%) (percent change of ATPase activity for pCa=5.47)” value in experiment [2] (3 × 10^-5 molar) was -17 ± 4%. Moreover, in experiment [2] (3 × 10^-5 molar), the “Ca2+ sensitivity p CA50 (shift of the pCa giving 50% of the maximal control ATPase activity)” value amounted to 0.41 ± 0.07.
Regarding `CC1SC(=O)NN=C1c1ccc2c(c1)C(C)(C)C(=O)N2C` (stereo not shown) [Example 18, 1,3-Dihydro-5-(3,6-dihydro-6-methyl-2-oxo-2H-1,3,4-thiadiazin-5-yl)-1,3,3-trimethyl-2H-indol-2-one], the figures for the change in vivo at 0.3 mg/kg in experiment [1] (setting [3]) and in experiment [1] (setting [4]) were 28% and 74%, respectively. Further, the “Max ATPase activity (%) (percent change of ATPase activity for pCa=5.47)” value in experiment [2] (3 × 10^-5 molar) is listed as “+3 ± 3%”. Also, the “Ca2+ sensitivity p CA50 (shift of the pCa giving 50% of the maximal control ATPase activity)” value in experiment [2] (3 × 10^-5 molar) is reported as 0.19 ± 0.03.
Turning to `O=C1NN=C(c2ccc3c(c2)C2(CCCS2)C(=O)N3)CS1` (stereo not shown) [Example 20, 5'-(3,6-Dihydro-2-oxo-2H-1,3,4-thiadiazin-5-yl)-spiro [thiolane-2,3'-[3H]-indol]-2'(1'H)-one], in experiment [1] (setting [3]), the change in vivo at 3 mg/kg was found to be 8%. For the same compound, the change in vivo at 3 mg/kg in experiment [1] (setting [4]) turned out to be 45%. In experiment [2] (3 × 10^-5 molar), the “Max ATPase activity (%) (percent change of ATPase activity for pCa=5.47)” value is recorded as -5 ± 3% and the “Ca2+ sensitivity p CA50 (shift of the pCa giving 50% of the maximal control ATPase activity)” value came out at 0.21 ± 0.05.
On to `CC1SC(=O)NN=C1c1ccc2c(c1)C1(CCCS1)C(=O)N2` (stereo not shown) [Example 21, 5'-(3,6-Dihydro-6-methyl-2-oxo-2H-1,3,4-thiadiazin-5-yl) -spiro-[thiolane-2,3'-[3H]-indol]-2'(1'H)-one], for which the change in vivo at 0.3 mg/kg came out at 9% in experiment [1] (setting [3]) and 42% in experiment [1] (setting [4]). For the same compound, the “Max ATPase activity (%) (percent change of ATPase activity for pCa=5.47)” value in experiment [2] (1 × 10^-5 molar) is listed as -7 ± 2%. Also, the “Ca2+ sensitivity p CA50 (shift of the pCa giving 50% of the maximal control ATPase activity)” value in experiment [2] (1 × 10^-5 molar) was 0.46 ± 0.04.
For `CC1SC(=O)NN=C1c1ccc2c(c1)C1(CCCC1)C(=O)N2C(=O)c1ccncc1` (stereo not shown) [Example 27, 5'-(3 6-Dihydro-6-methyl-2-oxo-2H-1,3,4-thiadiazin-5-yl)-1'-[(4 pyridyl)carbonyl]-spiro[cyclopentane-1,3'-[3H]indol]-2'(1'H)-one], in experiment [1] (setting [3]), the change in vivo at 1 mg/kg is 15%. Further, the change in vivo at 1 mg/kg in experiment [1] (setting [4]) is 63%. Further, in experiment [2] (3 × 10^-5 molar), the “Max ATPase activity (%) (percent change of ATPase activity for pCa=5.47)” value is recorded as “+2 ± 5%” and the “Ca2+ sensitivity p CA50 (shift of the pCa giving 50% of the maximal control ATPase activity)” value was determined as 0.47 ± 0.10.
Turning to `CC1SC(=O)NN=C1c1ccc2c(c1)C(C)(C)CC(=O)N2` (stereo not shown) [Example 35, 3,4-Dihydro-6-(3,6-dihydro-6-methyl-2-oxo-2H-1,3,4-thiadiazin-5-yl)-4,4-dimethyl-2(1H)-quinolinone], the values for the change in vivo at 0.1 mg/kg in experiment [1] (setting [3]) and in experiment [1] (setting [4]) were 20% and 49%, respectively. Moreover, the “Max ATPase activity (%) (percent change of ATPase activity for pCa=5.47)” value in experiment [2] (3 × 10^-5 molar) is on record as -1 ± 2%. Further, the “Ca2+ sensitivity p CA50 (shift of the pCa giving 50% of the maximal control ATPase activity)” value in experiment [2] (3 × 10^-5 molar) came out at 0.45 ± 0.05.
For `CC1SC(=O)NN=C1c1ccc2c(c1)CC(C)(C)C(=O)N2` (stereo not shown) [Example 36, 3,4-Dihydro-6-(3,6-dihydro-6-methyl-2-oxo-2H-1,3,4-thiadiazin-5-yl)-3,3-dimethyl-2(1H)-quinolinone], the change in vivo at 0.1 mg/kg in experiment [1] (setting [3]) was 7%. Also, in experiment [1] (setting [4]), the change in vivo at 0.1 mg/kg worked out at 46%. Further, in experiment [2] (3 × 10^-5 molar), the “Max ATPase activity (%) (percent change of ATPase activity for pCa=5.47)” value was -4 ± 3% and the “Ca2+ sensitivity p CA50 (shift of the pCa giving 50% of the maximal control ATPase activity)” value was 0.33 ± 0.07.
